This experiment concerns the target T1, human PDE2A1 (Homo sapiens, UniProt O00408).
T1 construct: GST; purchased BPS Bioscience (San Diego, Calif.) 60020; host or cells: insect cells
The experiment in a line: IMAP FP PDE selectivity panel, human PDE2A1. The class given is biochemical. The settings on record: Lab B; read-out: Human PDE2 Ki (nM) Lab B. In a few lines: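 IMAP FP read-out, run at room temperature in parallel with PDE1–11: enzyme at 20% substrate conversion, 50 nM FAM-cAMP containing 1000 nM cGMP, Tris pH 7.2/MgCl2/DTT buffer. Compounds as ten 3-fold dilutions. Reaction 60 min, stopped with binding reagent for 1 h before polarization measurement.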

T1 sequence (O00408 1-920 isoform O00408-2): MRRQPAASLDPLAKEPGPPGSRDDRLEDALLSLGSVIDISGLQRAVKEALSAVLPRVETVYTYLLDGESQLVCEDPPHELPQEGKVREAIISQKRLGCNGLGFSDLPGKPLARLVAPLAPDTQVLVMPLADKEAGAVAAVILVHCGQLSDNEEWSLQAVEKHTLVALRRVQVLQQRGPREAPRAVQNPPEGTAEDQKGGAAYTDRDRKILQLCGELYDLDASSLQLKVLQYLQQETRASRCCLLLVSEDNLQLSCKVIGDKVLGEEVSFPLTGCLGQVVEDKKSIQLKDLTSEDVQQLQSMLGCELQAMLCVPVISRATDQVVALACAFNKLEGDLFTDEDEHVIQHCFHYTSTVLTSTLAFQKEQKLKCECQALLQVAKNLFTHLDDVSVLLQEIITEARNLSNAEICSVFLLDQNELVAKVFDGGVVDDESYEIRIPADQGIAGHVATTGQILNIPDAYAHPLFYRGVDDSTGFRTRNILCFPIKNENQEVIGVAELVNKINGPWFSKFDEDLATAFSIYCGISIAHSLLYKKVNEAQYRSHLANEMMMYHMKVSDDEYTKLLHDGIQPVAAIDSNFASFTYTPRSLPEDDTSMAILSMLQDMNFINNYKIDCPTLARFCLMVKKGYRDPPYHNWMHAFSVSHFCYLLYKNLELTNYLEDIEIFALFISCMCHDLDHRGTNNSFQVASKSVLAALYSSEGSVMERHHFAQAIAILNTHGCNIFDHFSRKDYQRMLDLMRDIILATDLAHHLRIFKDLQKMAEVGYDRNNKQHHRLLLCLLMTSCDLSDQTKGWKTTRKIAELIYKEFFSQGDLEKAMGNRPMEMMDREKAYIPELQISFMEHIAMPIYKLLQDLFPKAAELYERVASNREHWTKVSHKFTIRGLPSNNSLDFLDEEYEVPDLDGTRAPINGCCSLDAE

Usually Ki stands for the dissociation constant of the complex between target and ligand, obtained from inhibition or displacement. Take `Cc1cc(N[C@@H](c2ccc(S(F)(F)(F)(F)F)cc2)C(C)C)n2ncnc2n1` [Example 22, 5-Methyl-N-{(1R)-2-methyl-1-[4-(pentafluoro-λ^6-sulfanyl)phenyl]propyl}[1,2,4]triazolo[1,5-a] pyrimidin-7-amine]: the Ki came out at 13 nM.

For the molecule `COCC(Nc1cc(C(F)(F)F)nc2ncnn12)c1ccc(C(F)(F)F)c(F)c1` (single isomer, unassigned) [Example 217, (R)- or (S)-N-(1-(3-Fluoro-4-(trifluoromethyl)phenyl)-2-methoxyethyl)-5-(trifluoromethyl)-[1,2,4]triazolo [1,5-a]pyrimidin-7-amine], the Ki is 329 nM.

Regarding `CC(C)(O)C(Nc1cc(C(F)(F)F)nc2ncnn12)c1ccc(C(F)(F)F)cc1F` (single isomer, unassigned) [Example 173, (1S or R)-1-[2-Fluoro-4-(trifluoromethyl)phenyl]-2-methyl-1-{[5-(trifluoromethyl) [1,2,4]triazolo [1,5-a]pyrimidin-7-yl]amino} propan-2-ol], the Ki is more than 2960 nM.

Consider `CCC(O)(CC)C(Nc1cc(C)nc2ncnn12)c1ccc(C(F)(F)F)c(F)c1` (single isomer, unassigned) [Example 216, (S)- or (R)-3-((3-Fluoro-4-(trifluoromethyl)phenyl)(5-methyl-[1,2,4]triazolo [1,5-a]pyrimidin-7-ylamino)methyl) pentan-3-ol], for which the inhibition constant Ki was 134 nM.

Take `C[C@H](Nc1cc(CO)cc2ncnn12)c1ccc(C(F)(F)F)cc1` [Example 268, [5-({(1S)-1-[4-(Trifluoromethyl)phenyl]ethyl}amino)[1,2,4]triazolo[1,5-a]pyridin-7-yl] methanol]: the Ki amounted to 2080 nM.

Consider `CC(C)(C)c1cc(NC(c2ccc(S(F)(F)(F)(F)F)cc2)C(C)(C)O)n2ncnc2n1` (single isomer, unassigned) [Example 150, (1S or R)-1-[(5-tert-Butyl[1,2,4]triazolo[1,5-a]pyrimidin-7-yl)amino]-2-methyl-1-[4-(pentafluoro-λ^6-sulfanyl)phenyl] propan-2-ol], for which the Ki is more than 2960 nM.

Turning to `CC(C)(O)C(Nc1cc(C(F)(F)F)nc2ncnn12)c1ccc(C(F)(F)F)c(F)c1` (single isomer, unassigned) [Example 213, (S)- or (R)-1-(3-Fluoro-4-(trifluoromethyl)phenyl)-2-methyl-1-(5-(trifluoromethyl)-[1,2,4]triazolo [1,5-a]pyrimidin-7-ylamino)propan-2-ol], the Ki was more than 2960 nM.

Consider `Cc1cc(N[C@@H](c2ccc(S(F)(F)(F)(F)F)cc2)C(C)(C)C)n2ncnc2n1` [Example 36, N-{(1R)-2,2-Dimethyl-1-[4-(pentafluoro-λ^6-sulfanyl)phenyl]propyl}-5-methyl [1,2,4]triazolo[1,5-a]pyrimidin-7-amine], for which the Ki is 6.3 nM.

For `Cc1cc(NC2(c3ccc(C(F)(F)F)c(F)c3)CC2)n2nc(CF)nc2n1` [Example 197, N-(1-(3-Fluoro-4-(trifluoromethyl)phenyl)cyclopropyl)-2-(fluoromethyl)-5-methyl-[1,2,4]triazolo [1,5-a]pyrimidin-7-amine], the Ki was 80 nM.

As for `Cc1cc(NC(c2ccc(C(F)(F)F)cc2F)C(C)(C)O)n2ncnc2n1` (single isomer, unassigned) [Example 114, (1S or R)-1-[2-Fluoro-4-(trifluoromethyl)phenyl]-2-methyl-1-[(5-methyl [1,2,4]triazolo [1,5-a]pyrimidin-7-yl)amino] propan-2-ol], the inhibition constant Ki is more than 2960 nM.

Consider `FS(F)(F)(F)(F)c1ccc(C2(Nc3cncc4ncnn34)CC2)cc1` [Example 290, N-{1-[4-(Pentafluoro-λ^6-sulfanyl)phenyl]cyclopropyl} [1,2,4]triazolo[1,5-a]pyrazin-5-amine], for which the Ki came out at 90 nM.

As for `CC1(c2ccc(C(Nc3cc(C(F)(F)F)nc4ncnn34)C(C)(C)O)cc2)CC1` (single isomer, unassigned) [Example 180, (1R or S)-2-Methyl-1-[4-(1-methylcyclopropyl)phenyl]-1-{[5-(trifluoromethyl) [1,2,4]triazolo [1,5-a]pyrimidin-7-yl]amino} propan-2-ol], the Ki stood at 12 nM.

As for `Cc1cc(N[C@@H](c2ccc(C3CC3)cc2F)C(C)C)n2ncnc2n1` [Example 25, N-[(1R)-1-(4-Cyclopropyl-2-fluorophenyl)-2-methylpropyl]-5-methyl[1,2,4]triazolo[1,5-a] pyrimidin-7-amine], the Ki was 9.9 nM.

For `Fc1cc(C2(Nc3cc(C4CC4)nc4ncnn34)CC2)ccc1C(F)(F)F` [Example 70, 5-Cyclopropyl-N-{1-[3-fluoro-4-(trifluoromethyl)phenyl]cyclopropyl}[1,2,4]triazolo[1,5-a]pyrimidin-7-amine], the inhibition constant Ki was determined as 3.7 nM.

Regarding `Cc1cc(N[C@H](c2ccc(F)c(OC(F)(F)F)c2)C(C)(C)O)n2ncnc2n1` [Example 131, (1R)-1-[4-Fluoro-3-(trifluoro-methoxy)phenyl]-2-methyl-1-[(5-methyl[1,2,4]triazolo[1,5-a]pyrimidin-7-yl)amino]propan-2-ol], the Ki is more than 2960 nM.

In the case of `CC(C)(O)C(Nc1cc(C(F)F)nc2ncnn12)c1ccc(OC(F)F)cc1Cl` (single isomer, unassigned) [Example 183, (1S or R)-[2-Chloro-4-(difluoromethoxy)phenyl]-1-{[5-(difluoromethyl) [1,2,4]triazolo [1,5-a]pyrimidin-7-yl]amino}-2-methylpropan-2-ol], the Ki is 15 nM.

Turning to `Cc1cc(N[C@@H](c2ccc(C(F)(F)F)c(F)c2)C(C)(C)C)n2nc(CCCO)nc2n1` [Example 249, (R)-3-(7-(1-(3-Fluoro-4-(trifluoromethyl)phenyl)-2,2-dimethylpropylamino)-5-methyl-[1,2,4]triazolo[1,5-a]pyrimidin-2-yl)propan-1-ol], the Ki is 40 nM.

On to `Cc1cc(N[C@@H](c2ccc(CC(F)(F)F)cc2)C(C)(C)C)n2ncnc2n1` [Example 35, N-{(1R)-2,2-Dimethyl-1-[4-(2,2,2-trifluoroethyl)phenyl]propyl}-5-methyl[1,2,4]triazolo[1,5-a] pyrimidin-7-amine], for which the Ki was 7.8 nM.

As for `Cc1cc(NC(C)(C)c2ccc(OC(F)(F)F)c(F)c2)n2ncnc2n1` [Example 45, N-{1-[3-Fluoro-4-(trifluoromethoxy)phenyl]-1-methylethyl}-5-methyl[1,2,4]triazolo[1,5-a]pyrimidin-7-amine], the Ki came to 207 nM.

Take `CC(C)(O)C(Nc1cc(C(F)(F)F)nc2ncnn12)c1ccc(C(F)F)cc1` (single isomer, unassigned) [Example 164, (1R or S)-1-[4-(Difluoromethyl)phenyl]-2-methyl-1-{[5-(trifluoromethyl) [1,2,4]triazolo [1,5-a]pyrimidin-7-yl]amino} propan-2-ol]: the Ki is more than 2960 nM.

As for `Cc1cc(N[C@H](C)c2ccc(OC(F)(F)F)cc2)n2ncnc2n1` [Example 7, 5-Methyl-N-{(1R)-1-[4-(trifluoromethoxy)phenyl]ethyl} [1,2,4]triazolo[1,5-a]pyrimidin-7-amine], the Ki was determined as 132 nM.

Consider `CC(C)(O)C(Nc1cc(Cl)nc2ncnn12)c1ccc(C(F)(F)F)c(F)c1` (single isomer, unassigned) [Example 223, (R)- or (S)-1-(5-Chloro-[1,2,4]triazolo [1,5-a]pyrimidin-7-ylamino)-1-(3-fluoro-4-(trifluoromethyl)phenyl)-2-methylpropan-2-ol], for which the Ki turned out to be 1.1 nM.

For `CCC(O)(CC)C(Nc1cc(C(F)(F)F)nc2ncnn12)c1ccc(C(F)(F)F)c(F)c1` (single isomer, unassigned) [Example 219, (R)- or (S)-3-((3-Fluoro-4-(trifluoromethyl)phenyl)(5-(trifluoromethyl)-[1,2,4]triazolo [1,5-a]pyrimidin-7-ylamino)methyl) pentan-3-ol], the Ki was 252 nM.

On to `Cc1cc(N[C@@H](c2ccc(C(F)(F)F)cc2)C(C)(C)O)n2ncnc2n1` [Example 94, (1S)-2-Methyl-1-[(5-methyl [1,2,4]triazolo[1,5-a]pyrimidin-7-yl)amino]-1-[4-(trifluoromethyl)phenyl]propan-2-ol], for which the Ki turned out to be 17 nM.

Turning to `Cc1cc(NC(c2ccc(OC(F)(F)F)c(F)c2)C(C)(C)CO)n2ncnc2n1` (single isomer, unassigned) [Example 232, (S or S)-3-(3-fluoro-4-(trifluoromethoxy)phenyl)-2,2-dimethyl-3-(5-methyl-[1,2,4]triazolo[1,5-a]pyrimidin-7-ylamino)propan-1-ol], the Ki was more than 2960 nM.

With `CC(C)c1cc(NC(c2ccc(OC(F)(F)F)cc2F)C(C)(C)O)n2ncnc2n1` (single isomer, unassigned) [Example 136, (1S or R)-1-[2-Fluoro-4-(trifluoro-methoxy)phenyl]-2-methyl-1-{[5-(1-methylethyl) [1,2,4]triazolo [1,5-a]pyrimidin-7-yl]amino} propan-2-ol], the Ki is more than 2960 nM.

For `OCc1cc(NC2(c3ccc(C(F)(F)F)cc3F)CC2)n2ncnc2c1` [Example 270, [5-({1-[2-Fluoro-4-(trifluoromethyl)phenyl]cyclopropyl}amino)[1,2,4]triazolo[1,5-a]pyridin-7-yl] methanol], the Ki turned out to be 101 nM.

On to `Cc1cc(NC2(c3ccc(C(F)(F)F)cc3)CCC2)n2ncnc2n1` [Example 64, 5-Methyl-N-{1-[4-(trifluoromethyl)phenyl]cyclobutyl}[1,2,4]triazolo [1,5-a]pyrimidin-7-amine], for which the Ki was found to be 77 nM.

As to `COCc1cc(N[C@@H](c2ccc(C(F)(F)F)c(F)c2)C(C)(C)C)n2ncnc2n1` [Example 76, N-{(1R)-1-[3-Fluoro-4-(trifluoromethyl)phenyl]-2,2-dimethylpropyl}-5-(methoxymethyl)[1,2,4]triazolo [1,5-a]pyrimidin-7-amine], the Ki was 969 nM.

Source of the values: patent publication US10357481B2 (MERCK SHARP & DOHME CORP., priority 2015, dated 2019).
